Experimental data reported in US5432164A, “C2,N^6 -disubstituted adenosine derivatives” (Novo Nordisk A/S, priority 1991, dated 1995).
Read-outs that look alike come from different tables or passages of the source.

What was measured:
adenosine A1 receptor = target: T1, adenosine A1 receptor (Rattus norvegicus, UniProt P25099); experiment: In vitro binding to adenosine A1 receptor, radioligand [3H]-L-PIA; conditions: for Ki: [3H]-L-PIA radioligand; for Ratio A2/A1: ratio of Ki A2/A1
T1 construct: from tissue
T1 sequence (P25099 1-326): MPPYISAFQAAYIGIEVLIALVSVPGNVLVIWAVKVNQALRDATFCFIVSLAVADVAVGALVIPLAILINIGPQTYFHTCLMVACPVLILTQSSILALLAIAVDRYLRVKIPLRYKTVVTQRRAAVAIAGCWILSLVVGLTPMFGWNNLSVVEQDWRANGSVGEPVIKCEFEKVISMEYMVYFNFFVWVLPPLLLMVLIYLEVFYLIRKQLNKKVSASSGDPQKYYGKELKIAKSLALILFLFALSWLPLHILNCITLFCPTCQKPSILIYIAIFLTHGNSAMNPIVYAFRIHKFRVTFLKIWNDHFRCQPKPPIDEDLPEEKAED
From the text: (§1) Evaluation of in vitro binding to adenosine A1 and A2 receptors.

adenosine A2 receptor = target: T2, adenosine A2 receptor (Rattus norvegicus, UniProt P30543); experiment: In vitro binding to adenosine A2 receptor, radioligand [3H]-CGS 21680
T2 construct: from tissue
T2 sequence (P30543 whole entry): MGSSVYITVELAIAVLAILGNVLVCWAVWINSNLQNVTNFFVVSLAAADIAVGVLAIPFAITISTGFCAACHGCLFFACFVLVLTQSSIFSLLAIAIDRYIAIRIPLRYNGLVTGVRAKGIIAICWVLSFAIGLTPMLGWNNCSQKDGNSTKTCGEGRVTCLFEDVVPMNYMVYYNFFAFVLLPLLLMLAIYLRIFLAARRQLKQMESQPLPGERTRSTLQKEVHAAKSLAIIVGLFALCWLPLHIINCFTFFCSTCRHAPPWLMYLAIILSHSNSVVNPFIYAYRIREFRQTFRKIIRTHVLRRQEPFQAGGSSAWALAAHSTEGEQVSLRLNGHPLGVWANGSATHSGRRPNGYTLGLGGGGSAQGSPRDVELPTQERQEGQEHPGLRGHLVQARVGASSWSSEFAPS
From the text: as §1

mice = experiment: DMCM induced seizures in mice, i.p. 30 min (protection against clonic convulsions); assay type: in vivo, male NMRI mice; conditions: Mus musculus, ip, 0.5 h, read-out: DMCM-ind. seizures (ED50, mg/kg)
Experimental: DMCM INDUCED SEIZURES IN MICE, I.P.30 min.
DMCM, 15 mg/kg, i.p., clonic convulsions
DMCM is an inverse agonist at the benzodiazepine receptor, presumably producing seizures by decreasing the potency of inhibition of the GABA receptor/benzodiazepine receptor/chloride ionophore complex (1).
15 mg/kg of DMCM dissolved in 0.02N HCl (1 mg/ml) is administered i.p. in a volume of 300 μl to male NMRI mice weighing 20±2 g. This induces two different responses: a) some animals manifest a brief loss of righting reflexes or take up an upright position in which they have a mild short clonus of the upper extremities, b) other animals manifest intense clonic and tonic convulsions of all extremities often followed by death. DMCM is administered 30 min. after an intraperitoneal injection of a test compound. The latency time for the presence of intense clonic and tonic convulsions and death is noted until 15 min. after administration of DMCM. At least 5 doses of each test compound are tested with 8 mice per dose.
This method is described in more detail in Eur. J. Pharmacol. 94, 117-124, 1983.

A1 receptor = conditions: literature, in words; cited from earlier work
[1] = [3H]-CGS 21680 radioligand, read-out: A2 Receptor Binding (Ki)
[2] = mice, test compound i.p. 30 min before DMCM 15 mg/kg i.p., dose protecting 50% against clonic convulsions

| Ki (adenosine A1 receptor) [nM] | Ratio A2/A1 (adenosine A1 receptor) | Ki (adenosine A2 receptor; [1]) [nM] | SMILES | ED50 (mice; [2]) [mg/kg] | Ki (adenosine A2 receptor) [nM] | ED50 (mice) [mg/kg] | selectivity for the A1 receptor over the A2 receptor (A1 receptor) |
| --- | --- | --- | --- | --- | --- | --- | --- |
| – | 857 | 1200 | OC[C@H]1O[C@@H](n2cnc3c(NN4CCC(Oc5ccccc5)CC4)nc(Cl)nc32)[C@H](O)[C@@H]1O [Example 17, 2-Chloro-N-[4-phenoxy-1-piperidinyl]adenosine] | 0.9 | – | – | – |
| 11 | 158 | 1730 | OC[C@H]1O[C@@H](n2cnc3c(NN4CCCC(Oc5ccccc5)C4)nc(Cl)nc32)[C@H](O)[C@@H]1O (stereo partly shown) [Example 16, 2-Chloro-N-(3-phenoxy-1-piperidinyl)adenosine] | 1 | – | – | – |

Continued, molecule first:

| SMILES | Ki (adenosine A1 receptor) [nM] | Ratio A2/A1 (adenosine A1 receptor) | Ki (adenosine A2 receptor; [1]) [nM] | ED50 (mice; [2]) [mg/kg] | Ki (adenosine A2 receptor) [nM] | ED50 (mice) [mg/kg] | selectivity for the A1 receptor over the A2 receptor (A1 receptor) |
| --- | --- | --- | --- | --- | --- | --- | --- |
| OC[C@H]1O[C@@H](n2cnc3c(NN4CCCCC4)nc(Cl)nc32)[C@H](O)[C@@H]1O [Example 5, 2-Chloro-N-(1-piperidinyl)adenosine] | 4 | 173 | 691 | 0.1 | – | – | – |
| OC[C@H]1O[C@@H](n2cnc3c(NC4CCCC4)ncnc32)[C@H](O)[C@@H]1O [CPA, N-(cyclopentyl)adenosine, reference compound] | – | – | – | – | 173 | 0.2 | – |
| CC(Cc1ccccc1)Nc1ncnc2c1ncn2[C@@H]1O[C@H](CO)[C@@H](O)[C@H]1O (stereo partly drawn) [L-PIA, N-(1-phenyl-2-propyl)adenosine, reference compound] | – | – | – | – | – | 0.1 | – |
| OC[C@H]1O[C@@H](n2cnc3c(NC4CCCC4)nc(Cl)nc32)[C@H](O)[C@@H]1O [2-chloro-N-cyclopentyladenosine] | – | – | – | – | – | – | most selective for the A1 receptor over the A2 receptor |
| OC[C@H]1O[C@@H](n2cnc3c(NN4CCCCC4)nc(F)nc32)[C@H](O)[C@@H]1O [Example 9, 2-Fluoro-N-(1-piperidinyl)adenosine] | 4 | 289 | 1140 | 0.7 | – | – | – |
